# Measured values: ChEMBL document CHEMBL5154873, “Selective degradation of PARP2 by PROTACs via recruiting DCAF16 for triple-negative breast cancer” (Eur J Med Chem, 2022)
# The source made the active and inactive calls. No cut-off for these calls is given here.
# Legend:
# [1] = biological target: Poly [ADP-ribose] polymerase 1 (Homo sapiens, UniProt P09874); test: Inhibition of PARP1 (unknown origin)
# [2] = Toxicity in BALB/c mouse xenografted with MDA-MB-231 cells assessed as change in body weight at 12.5 to 25 mg/kg, ip measured after 21 days; format: organism-based; conditions: in vivo, 504 h, dose 12.5-25 mg/kg, time 21 day
# [3] = biological target: T1, DDB1- and CUL4-associated factor 16/Poly [ADP-ribose] polymerase 2 (Homo sapiens, UniProt Q9UGN5+Q9NXF7); test: Protac activity at DCAF16 E3 ligase/PARP2 in human MDA-MB-231 cells assessed as induction of PARP2 degradation at 0.5 uM preincubated for 2 hrs followed by compound washout measured after 48 hrs by Western blot analysis; format: cell-based
# Target sequence in this assay (Q9NXF7 whole entry, looked up): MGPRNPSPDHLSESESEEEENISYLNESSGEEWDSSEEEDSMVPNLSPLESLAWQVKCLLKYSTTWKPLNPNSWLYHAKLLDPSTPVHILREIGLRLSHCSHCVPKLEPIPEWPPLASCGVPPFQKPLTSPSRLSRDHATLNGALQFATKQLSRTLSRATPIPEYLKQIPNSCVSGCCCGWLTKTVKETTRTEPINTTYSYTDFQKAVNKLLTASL
# Target sequence in this assay (Q9UGN5 whole entry, looked up): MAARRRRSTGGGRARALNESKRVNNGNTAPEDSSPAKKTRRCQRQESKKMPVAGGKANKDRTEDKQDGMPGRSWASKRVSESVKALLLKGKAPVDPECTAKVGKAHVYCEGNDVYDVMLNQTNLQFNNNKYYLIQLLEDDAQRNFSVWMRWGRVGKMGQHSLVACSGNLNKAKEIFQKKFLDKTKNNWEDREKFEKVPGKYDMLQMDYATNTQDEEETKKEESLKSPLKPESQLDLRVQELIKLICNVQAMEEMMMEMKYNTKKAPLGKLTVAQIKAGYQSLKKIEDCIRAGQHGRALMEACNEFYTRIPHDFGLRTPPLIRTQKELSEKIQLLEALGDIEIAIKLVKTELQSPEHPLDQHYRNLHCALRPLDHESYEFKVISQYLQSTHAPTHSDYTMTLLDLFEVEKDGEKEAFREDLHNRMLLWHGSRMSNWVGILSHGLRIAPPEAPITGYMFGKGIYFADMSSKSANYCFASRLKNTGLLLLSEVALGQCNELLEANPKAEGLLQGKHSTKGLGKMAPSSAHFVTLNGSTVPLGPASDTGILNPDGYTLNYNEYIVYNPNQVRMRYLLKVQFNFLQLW
# HepG2 = test: Antiproliferative activity against human HepG2 cells over expressing DCAF16 assessed as reduction in cell viability incubated for 5 to 10 days by MTT assay; format: functional, cell-based; conditions: time 5-10 day
# MDA-MB-436 [4] = test: Antiproliferative activity against human BRCA1 -/- MDA-MB-436 cells assessed as reduction in cell viability incubated for 5 to 10 days by MTT assay; format: functional, cell-based
# [5] = Toxicity in BALB/c mouse xenografted with MDA-MB-231 cells assessed as pathological changes in heart at 25 mg/kg, ip measured after 21 days by hematoxylin and eosin staining based assay; format: organism-based; conditions: in vivo, 504 h, time 21 day
# MDA-MB-231 [6] = test: Potency index, ratio of IC50 of Olaparib to IC50 of test compound antiproliferative activity against wild type human MDA-MB-231 cells assessed as reduction in cell viability incubated for 5 to 10 days by MTT assay; format: functional; conditions: time 5-10 day
# [7] = Toxicity in BALB/c mouse xenografted with MDA-MB-231 cells assessed as mortality at 12.5 to 25 mg/kg, ip measured after 21 days; format: organism-based; conditions: in vivo, 504 h, dose 12.5-25 mg/kg, time 21 day
# MV4-11 = test: Antiproliferative activity against human MV4-11 cells over expressing DCAF16 assessed as reduction in cell viability incubated for 5 to 10 days by MTT assay; format: functional, cell-based; conditions: time 5-10 day
# NCI-H3122 = test: Antiproliferative activity against human H3122 cells over expressing DCAF16 assessed as reduction in cell viability incubated for 5 to 10 days by MTT assay; format: functional, cell-based; conditions: time 5-10 day
# [8] = Toxicity in BALB/c mouse xenografted with MDA-MB-231 cells assessed as pathological changes in spleen at 25 mg/kg, ip measured after 21 days by hematoxylin and eosin staining based assay; format: organism-based; conditions: in vivo, 504 h, time 21 day
# CAPAN-1 = test: Antiproliferative activity against human BRCA2 -/- CAPAN-1 cells assessed as reduction in cell viability incubated for 5 to 10 days by MTT assay; format: functional, cell-based
# HeLa = test: Antiproliferative activity against human HeLa cells over expressing DCAF16 assessed as reduction in cell viability incubated for 5 to 10 days by MTT assay; format: functional, cell-based; conditions: time 5-10 day
# NCI-H2228 = test: Antiproliferative activity against human H2228 cells over expressing DCAF16 assessed as reduction in cell viability incubated for 5 to 10 days by MTT assay; format: functional, cell-based; conditions: time 5-10 day
# MDA-MB-468 [9] = test: Antiproliferative activity against human PTEN -/- MDA-MB-468 cells assessed as reduction in cell viability incubated for 5 to 10 days by MTT assay; format: functional, cell-based
# [10] = biological target: T1, DDB1- and CUL4-associated factor 16/Poly [ADP-ribose] polymerase 2; test: Protac activity at DCAF16 E3 ligase/PARP2 in human MDA-MB-231 cells assessed as induction of PARP2 degradation at 1 uM measured after 24 hrs by Western blot analysis; format: cell-based
# Target sequence in this assay (Q9NXF7 whole entry, looked up): as the sequence (Q9NXF7 whole entry, looked up) above
# Target sequence in this assay (Q9UGN5 whole entry, looked up): as the sequence (Q9UGN5 whole entry, looked up) above
# [11] = biological target: T1, DDB1- and CUL4-associated factor 16/Poly [ADP-ribose] polymerase 2; test: Protac activity at DCAF16 E3 ligase/PARP2 in human MDA-MB-231 cells assessed as induction of PARP2 degradation at 0.5 uM measured after 8 hrs by Western blot analysis; format: cell-based
# Target sequence in this assay (Q9NXF7 whole entry, looked up): as the sequence (Q9NXF7 whole entry, looked up) above
# Target sequence in this assay (Q9UGN5 whole entry, looked up): as the sequence (Q9UGN5 whole entry, looked up) above
# MDA-MB-231 [12] = test: Antitumor activity against human MDA-MB-231 cells xenografted BALB/c mouse assessed as reduction in tumor weight at 25 mg/kg, ip measured after 21 days; format: functional, organism-based; conditions: time 21.0 day
# MDA-MB-468 [13] = test: Potency index, ratio of IC50 of Olaparib to IC50 of test compound antiproliferative activity against human PTEN -/- MDA-MB-468 cells assessed as reduction in cell viability incubated for 5 to 10 days by MTT assay; format: functional; conditions: time 5-10 day
# [14] = biological target: T1, DDB1- and CUL4-associated factor 16/Poly [ADP-ribose] polymerase 2; test: Protac activity at DCAF16 E3 ligase/PARP2 in human MDA-MB-231 cells assessed as induction of PARP2 degradation in nucleus at 0.5 uM measured after 24 hrs by DAPI staining based immunofluorescence microscopy; format: cell-based
# Target sequence in this assay (Q9NXF7 whole entry, looked up): as the sequence (Q9NXF7 whole entry, looked up) above
# Target sequence in this assay (Q9UGN5 whole entry, looked up): as the sequence (Q9UGN5 whole entry, looked up) above
# MDA-MB-436 [15] = test: Induction of cell cycle arrest in human (BRAC1-/-) MDA-MB-436 cells assessed as accumulation at G2/M phase measured after 48 hrs by flow cytometry analysis; format: functional, cell-based; conditions: dose 0.312-2.5 µM, DDE = dose-dependent effect
# [16] = Toxicity in BALB/c mouse xenografted with MDA-MB-231 cells assessed as morbidity at 100 mg/kg, IG measured after 21 days; format: organism-based; conditions: in vivo, po, 504 h, time 21 day
# [17] = Toxicity in BALB/c mouse xenografted with MDA-MB-231 cells assessed as pathological changes in kidney at 25 mg/kg, ip measured after 21 days by hematoxylin and eosin staining based assay; format: organism-based; conditions: in vivo, 504 h, time 21 day
# L02 = test: Cytotoxicity against human L02 cells; format: toxicity, cell-based
# [18] = biological target: T1, DDB1- and CUL4-associated factor 16/Poly [ADP-ribose] polymerase 2; test: Protac activity at DCAF16 E3 ligase/PARP2 in human MDA-MB-231 cells assessed as induction of PARP2 degradation measured after 24 hrs by Western blot analysis; format: cell-based
# Target sequence in this assay (Q9UGN5 whole entry): as the sequence (Q9UGN5 whole entry, looked up) above
# Target sequence in this assay (Q9NXF7 whole entry): as the sequence (Q9NXF7 whole entry, looked up) above
# MDA-MB-231 [19] = test: Induction of apoptosis in human wild type MDA-MB-231 cells at 1.25 uM measured after 48 hrs by Annexin V-FITC/PI staining based flow cytometry method; format: functional
# [20] = Toxicity in BALB/c mouse xenografted with MDA-MB-231 cells assessed as change in body weight at 100 mg/kg, IG measured after 21 days; format: organism-based; conditions: in vivo, po, 504 h, time 21 day
# [21] = Toxicity in BALB/c mouse xenografted with MDA-MB-231 cells assessed as mortality at 100 mg/kg, IG measured after 21 days; format: organism-based; conditions: in vivo, po, 504 h, time 21 day
# MDA-MB-231 [22] = test: Inhibition of colony formation in human MDA-MB-231 cells measured after 14 days by crystal violet staining based analysis; format: functional, cell-based; conditions: dose 0.312-5 µM, time 14.0 day, DDE = dose-dependent effect
# [23] = Toxicity in BALB/c mouse xenografted with MDA-MB-231 cells assessed as pathological changes in lung at 25 mg/kg, ip measured after 21 days by hematoxylin and eosin staining based assay; format: organism-based; conditions: in vivo, 504 h, time 21 day
# [24] = Toxicity in BALB/c mouse xenografted with MDA-MB-231 cells assessed as morbidity at 12.5 to 25 mg/kg, ip measured after 21 days; format: organism-based; conditions: in vivo, 504 h, dose 12.5-25 mg/kg, time 21 day
# MDA-MB-231 [25] = test: Antiproliferative activity against wild type human MDA-MB-231 cells assessed as reduction in cell viability incubated for 5 to 10 days by MTT assay; format: functional, cell-based
# MDA-MB-231 [26] = test: In vivo antitumor activity against human MDA-MB-231 cells xenografted BALB/c mouse assessed as tumor growth inhibition at 100 mg/kg, IG measured after 21 days; format: functional; conditions: MDA-MB-231, po, 504 h, time 21 day, read-out: TGI
# SW-620 = test: Antiproliferative activity against human SW-620 cells over expressing DCAF16 assessed as reduction in cell viability incubated for 5 to 10 days by MTT assay; format: functional, cell-based; conditions: time 5-10 day
# [27] = Toxicity in BALB/c mouse xenografted with MDA-MB-231 cells assessed as pathological changes in liver at 25 mg/kg, ip measured after 21 days by hematoxylin and eosin staining based assay; format: organism-based; conditions: in vivo, 504 h, time 21 day
# MDA-MB-231 [28] = test: In vivo antitumor activity against human MDA-MB-231 cells xenografted BALB/c mouse assessed as tumor growth inhibition at 25 mg/kg, ip measured after 21 days; format: functional; conditions: MDA-MB-231, 504 h, time 21 day, read-out: TGI
# [29] = biological target: T1, DDB1- and CUL4-associated factor 16/Poly [ADP-ribose] polymerase 2; test: Protac activity at DCAF16 E3 ligase/PARP2 in human MDA-MB-231 cells assessed as maximum degradation of PARP2 measured after 24 hrs by Western blot analysis relative to control; format: cell-based
# Target sequence in this assay (Q9NXF7 whole entry, looked up): as above
# Target sequence in this assay (Q9UGN5 whole entry, looked up): as the sequence (Q9UGN5 whole entry, looked up) above
# SK-OV-3 = test: Antiproliferative activity against human SK-OV-3 cells over expressing DCAF16 assessed as reduction in cell viability incubated for 5 to 10 days by MTT assay; format: functional, cell-based; conditions: time 5-10 day
# MDA-MB-231 [30] = test: In vivo antitumor activity against human MDA-MB-231 cells xenografted BALB/c mouse assessed as tumor growth inhibition at 12.5 mg/kg, ip measured after 21 days; format: functional; conditions: MDA-MB-231, 504 h, time 21 day, read-out: TGI
# MDA-MB-231 [31] = test: Induction of cell cycle arrest in human MDA-MB-231 cells assessed as accumulation at G2/M phase measured after 24 hrs by flow cytometry analysis; format: functional, cell-based; conditions: dose 0.156-1.25 µM, DDE = dose-dependent effect
# [32] = biological target: Poly [ADP-ribose] polymerase 2 (Homo sapiens, UniProt Q9UGN5); test: Inhibition of PARP2 (unknown origin)
# Poly [ADP-ribose] polymerase 2, sequence (Q9UGN5 whole entry): as the sequence (Q9UGN5 whole entry, looked up) above
# Poly [ADP-ribose] polymerase 1, sequence (P09874 whole entry): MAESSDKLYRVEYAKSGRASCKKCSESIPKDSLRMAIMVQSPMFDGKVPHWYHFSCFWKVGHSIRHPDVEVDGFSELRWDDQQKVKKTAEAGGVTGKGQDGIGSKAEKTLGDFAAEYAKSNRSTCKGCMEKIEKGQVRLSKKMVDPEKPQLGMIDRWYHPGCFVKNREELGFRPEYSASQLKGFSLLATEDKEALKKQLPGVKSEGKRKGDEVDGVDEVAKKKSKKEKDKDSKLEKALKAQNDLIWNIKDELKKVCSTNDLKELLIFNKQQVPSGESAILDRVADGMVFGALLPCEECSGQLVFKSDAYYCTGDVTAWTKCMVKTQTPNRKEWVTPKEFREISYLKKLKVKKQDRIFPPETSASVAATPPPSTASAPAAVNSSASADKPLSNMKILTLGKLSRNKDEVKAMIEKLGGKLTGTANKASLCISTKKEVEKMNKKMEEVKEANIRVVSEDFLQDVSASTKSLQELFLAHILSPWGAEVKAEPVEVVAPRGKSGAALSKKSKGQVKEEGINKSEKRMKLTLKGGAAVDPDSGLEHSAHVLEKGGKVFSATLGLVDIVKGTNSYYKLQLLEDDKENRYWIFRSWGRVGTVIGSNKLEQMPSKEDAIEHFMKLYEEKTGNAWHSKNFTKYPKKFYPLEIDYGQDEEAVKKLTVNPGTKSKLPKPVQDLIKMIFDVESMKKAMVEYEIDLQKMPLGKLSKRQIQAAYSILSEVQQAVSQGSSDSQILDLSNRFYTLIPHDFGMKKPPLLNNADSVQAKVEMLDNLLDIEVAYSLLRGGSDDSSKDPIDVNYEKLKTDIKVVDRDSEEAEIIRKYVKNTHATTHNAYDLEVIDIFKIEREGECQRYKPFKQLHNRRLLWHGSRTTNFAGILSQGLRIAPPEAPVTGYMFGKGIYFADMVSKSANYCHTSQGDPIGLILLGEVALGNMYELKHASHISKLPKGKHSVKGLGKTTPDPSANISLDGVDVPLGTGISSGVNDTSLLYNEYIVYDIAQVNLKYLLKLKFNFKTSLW
structure (smiles),measurement,setting,value
O=C(COc1ccc2c(c1)CCCN2C(=O)CCl)NCCCCCCCCCC(=O)N1CCN(C(=O)c2cc(Cc3n[nH]c(=O)c4ccccc34)ccc2F)CC1,IC50,[1],2.74 nM
same,Activity,[2],Non-Toxic
same,Activity,[3],Active
same,inhibition,HepG2,Active
same,IC50,MDA-MB-436 [4],26 nM
same,Activity,[5],Non-Toxic
same,Ratio IC50,MDA-MB-231 [6],6
same,Activity,[7],Non-Toxic
same,inhibition,MV4-11,Active
same,inhibition,NCI-H3122,Active
same,Activity,[8],Non-Toxic
same,IC50,CAPAN-1,61 nM
same,inhibition,HeLa,Active
same,inhibition,NCI-H2228,Active
same,IC50,MDA-MB-468 [9],690 nM
same,Activity,[10],Active
same,Activity,[11],Active
same,Activity,MDA-MB-231 [12],Active
same,Ratio IC50,MDA-MB-468 [13],6
same,Activity,[14],Active
same,Activity,MDA-MB-436 [15],Dde
same,Activity,[16],Non-Toxic
same,Activity,[17],Non-Toxic
same,Activity,L02,Non-Toxic
same,DC50,[18],2000 nM
same,Activity,MDA-MB-231 [19],20%
same,Activity,[20],Non-Toxic
same,Activity,[21],Non-Toxic
same,inhibition,MDA-MB-231 [22],Dde
same,Activity,[23],Non-Toxic
same,Activity,[24],Non-Toxic
same,IC50,MDA-MB-231 [25],530 nM
same,inhibition in vivo at 100 mg/kg,MDA-MB-231 [26],63.5%
same,inhibition,SW-620,Active
same,Activity,[27],Non-Toxic
same,inhibition in vivo at 25 mg/kg,MDA-MB-231 [28],98.3%
same,Activity,[29],> 92%
same,inhibition,SK-OV-3,Active
same,inhibition in vivo at 12.5 mg/kg,MDA-MB-231 [30],82.9%
same,Activity,MDA-MB-231 [31],Dde
same,IC50,[32],0.32 nM
